Measured values reported in BindingDB's records for doi:10.1021/acs.jmedchem.9b01562 (Lupin, 2019).

Key:
[1] = Inhibition of NS5A in HCV genotype 1b infected in human HuH7.5/Con1/SG-Neo(I)-hRluc2aUb cells assessed as inhibition of replicon levels incubated for 72 hrs by luciferase reporter gene assay
[2] = Inhibition of NS5A in HCV genotype 2a infected in human Huh7.5/J6/JFH1/EMCVIRES/hRlucNeo cells assessed as inhibition of replicon levels incubated for 72 hrs by luciferase reporter gene assay
[3] = Inhibition of NS5A in HCV genotype 3a infected in human HuH7.5/Con1/SG-Neo(I)-hRluc2aUb cells assessed as inhibition of replicon levels incubated for 72 hrs by luciferase reporter gene assay
[4] = Inhibition of NS5A in HCV genotype 1a infected in human HuH7.5/Con1/SG-Neo(I)-hRluc2aUb cells assessed as inhibition of replicon levels incubated for 72 hrs by luciferase reporter gene assay
[5] = Inhibition of NS5A in HCV genotype 6a infected in human HuH7.5/Con1/SG-Neo(I)-hRluc2aUb cells assessed as inhibition of replicon levels incubated for 72 hrs by luciferase reporter gene assay
[6] = Inhibition of NS5A in HCV genotype 4a infected in human HuH7.5/Con1/SG-Neo(I)-hRluc2aUb cells assessed as inhibition of replicon levels incubated for 72 hrs by luciferase reporter gene assay

Row | Compound | IC50 [1] [nM] | IC50 [2] [nM] | IC50 [3] [nM] | IC50 [4] [nM] | IC50 [5] [nM] | IC50 [6] [nM]
1 | COC(=O)N[C@H](C(=O)N1CCC[C@H]1c1ncc(-c2ccc3c(c2)CCc2cc(-c4cnc([C@@H]5CCCN5C(=O)[C@@H](NC(=O)OC)C(C)C)[nH]4)ccc2-3)[nH]1)C(C)C | 0.015 | 0.009 |  |  |  | 
2 | COC(=O)N[C@H](C(=O)N1CCC[C@H]1c1nc(Cl)c(-c2ccc3c(c2)OCCc2cc(-c4[nH]c([C@@H]5CCCN5C(=O)[C@@H](NC(=O)OC)C(C)C)nc4Cl)sc2-3)[nH]1)C(C)C | 0.008 | 1.3 |  |  |  | 
3 | COC(=O)N[C@H](C(=O)N1CCC[C@H]1c1nc(Cl)c(-c2ccc3c(c2)OCC(C)(C)COc2cc(-c4[nH]c([C@@H]5CCCN5C(=O)[C@@H](NC(=O)OC)C(C)C)nc4Cl)ccc2-3)[nH]1)C(C)C | 0.004 | 0.322 |  |  |  | 
4 | COC(=O)N[C@H](C(=O)N1CCC[C@H]1c1ncc(-c2ccc(C34CCC(c5ccc(-c6cnc([C@@H]7CCCN7C(=O)[C@@H](NC(=O)OC)C(C)C)[nH]6)cc5)(CC3)CC4)cc2)[nH]1)C(C)C | 0.312 | 34 |  |  |  | 
5 | COC(=O)N[C@H](C(=O)N1CCC[C@H]1c1ncc(-c2ccc3c(ccc4cc(-c5cnc([C@@H]6[C@@H]7CC[C@@H](C7)N6C(=O)[C@@H](NC(=O)OC)C(C)C)[nH]5)sc43)c2)[nH]1)C(C)C | 0.013 | 0.011 |  |  |  | 
6 | COC(=O)N[C@H](C(=O)N1CCC[C@H]1c1nc(-c2ccc(-c3ccc(-c4c[nH]c([C@@H]5CCCN5C(=O)[C@@H](NC(=O)OC)C(C)C)n4)cc3)cc2)c[nH]1)C(C)C [BMS-790052] | 0.023 | 0.009 |  |  |  | 
7 | COC(=O)N[C@H](C(=O)N1CCC[C@H]1c1ncc(-c2ccc(N3CC4CC3CN4c3ccc(-c4cnc([C@@H]5CCCN5C(=O)[C@@H](NC(=O)OC)C(C)C)[nH]4)cc3)cc2)[nH]1)C(C)C | 3.7 | 4 |  |  |  | 
8 | COC(=O)N[C@H](C(=O)N1CCC[C@H]1c1ncc(-c2ccc3c(c2)OCC(C)(C)COc2cc(-c4cnc([C@@H]5CCCN5C(=O)[C@@H](NC(=O)OC)C(C)C)[nH]4)ccc2-3)[nH]1)C(C)C | 0.069 | 0.176 |  |  |  | 
9 | COC(=O)N[C@H](C(=O)N1CCC[C@H]1c1ncc(-c2ccc3c(c2)CC2(C3)Cc3ccc(-c4cnc([C@@H]5CCCN5C(=O)[C@@H](NC(=O)OC)C(C)C)[nH]4)cc3C2)[nH]1)C(C)C | 0.08 | 27 |  |  |  | 
10 | COC(=O)N[C@H](C(=O)N1CCC[C@H]1c1ncc(-c2ccc3c(c2)OCCCOc2cc(-c4cnc([C@@H]5CCCN5C(=O)[C@@H](NC(=O)OC)C(C)C)[nH]4)ccc2-3)[nH]1)C(C)C | 0.288 | 0.314 |  |  |  | 
11 | COC(=O)N[C@H](C(=O)N1CCC[C@H]1c1ncc(-c2ccc(-c3ccc(-c4ccc(-c5cnc([C@@H]6CCCN6C(=O)[C@@H](NC(=O)OC)C(C)C)[nH]5)cc4)cc3)cc2)[nH]1)C(C)C | 0.136 | 26 |  |  |  | 
12 | COC(=O)N[C@H](C(=O)N1CCC[C@H]1c1ncc(-c2ccc3c(c2)OCC(C)(C)COc2cc(-c4[nH]c([C@@H]5CCCN5C(=O)[C@@H](NC(=O)OC)C(C)C)nc4Cl)ccc2-3)[nH]1)C(C)C | 0.021 | 0.671 |  |  |  | 
13 | COC(=O)N[C@H](C(=O)N1CCC[C@H]1c1ncc(-c2ccc3c(ccc4sc(-c5cnc([C@@H]6CCCN6C(=O)[C@@H](NC(=O)OC)C(C)C)[nH]5)nc43)c2)[nH]1)C(C)C | 0.073 |  |  |  |  | 
14 | COC(=O)N[C@H](C(=O)N1CCC[C@H]1c1ncc(-c2ccc3c(c2)OCCCOc2cc(-c4[nH]c([C@@H]5CCCN5C(=O)[C@@H](NC(=O)OC)C(C)C)nc4Cl)ccc2-3)[nH]1)C(C)C | 0.051 | 0.053 |  |  |  | 
15 | COC(=O)N[C@H](C(=O)N1CCC[C@H]1c1nc(Cl)c(-c2ccc3c(c2)CCCc2cc(-c4[nH]c([C@@H]5CCCN5C(=O)[C@@H](NC(=O)OC)C(C)C)nc4Cl)sc2-3)[nH]1)C(C)C | 0.02 | 0.052 |  |  |  | 
16 | COC(=O)N[C@H](C(=O)N1CCC[C@H]1c1ncc(-c2ccc3c(c2)OCc2cc(-c4cnc([C@@H]5CCCN5C(=O)[C@@H](NC(=O)OC)C(C)C)[nH]4)sc2-3)[nH]1)C(C)C | 0.02 | 0.03 | 0.075 | 0.031 | 0.055 | 0.009
17 | COC(=O)N[C@H](C(=O)N1CCC[C@H]1c1ncc(-c2ccc(N3CCN(c4ccc(-c5cnc([C@@H]6CCCN6C(=O)[C@@H](NC(=O)OC)C(C)C)[nH]5)cc4)CC3)cc2)[nH]1)C(C)C | 0.262 | 4.6 |  |  |  | 
18 | COC(=O)N[C@H](C(=O)N1CCC[C@H]1c1ncc(-c2ccc3c(c2)OCC2(CC2)COc2cc(-c4cnc([C@@H]5CCCN5C(=O)[C@@H](NC(=O)OC)C(C)C)[nH]4)ccc2-3)[nH]1)C(C)C | 0.135 | 1.8 |  |  |  | 
19 | COC(=O)N[C@H](C(=O)N1CCC[C@H]1c1nc(C2CC2)c(-c2ccc3c(c2)OCC(C)(C)COc2cc(-c4[nH]c([C@@H]5CCCN5C(=O)[C@@H](NC(=O)OC)C(C)C)nc4C4CC4)ccc2-3)[nH]1)C(C)C | 0.115 | 6.8 |  |  |  | 
20 | COC(=O)N[C@H](C(=O)N1CCC[C@H]1c1ncc(-c2ccc3c(c2)OCCCCOc2cc(-c4cnc([C@@H]5CCCN5C(=O)[C@@H](NC(=O)OC)C(C)C)[nH]4)ccc2-3)[nH]1)C(C)C | 0.194 | 1.3 |  |  |  | 
21 | COC(=O)N[C@H](C(=O)N1CCC[C@H]1c1ncc(-c2ccc3c(ccc4cc(-c5cnc([C@@H]6CCCN6C(=O)[C@@H](NC(=O)OC)C(C)C)[nH]5)sc43)c2)[nH]1)C(C)C | 0.012 | 0.005 | 0.047 | 0.027 | 0.028 | 0.003
22 | COC(=O)N[C@H](C(=O)N1CCC[C@H]1c1ncc(-c2ccc3c(c2)CCc2cc(-c4cnc([C@@H]5CCCN5C(=O)[C@@H](NC(=O)OC)C(C)C)[nH]4)sc2-3)[nH]1)C(C)C | 0.021 | 0.021 |  |  |  | 
23 | CCc1nc([C@@H]2CCCN2C(=O)[C@@H](NC(=O)OC)C(C)C)[nH]c1-c1ccc2c(c1)OCC(C)(C)COc1cc(-c3[nH]c([C@@H]4CCCN4C(=O)[C@@H](NC(=O)OC)C(C)C)nc3CC)ccc1-2 | 0.219 | 80 |  |  |  | 
24 | COC(=O)N[C@H](C(=O)N1[C@H]2CC[C@H](C2)[C@H]1c1ncc(-c2ccc3c(ccc4cc(-c5cnc([C@@H]6[C@@H]7CC[C@@H](C7)N6C(=O)[C@@H](NC(=O)OC)C(C)C)[nH]5)sc43)c2)[nH]1)C(C)C | 0.021 | 0.337 |  |  |  | 
25 | COC(=O)N[C@H](C(=O)N1CCC[C@H]1c1ncc(-c2ccc3c(c2)OCCc2cc(-c4cnc([C@@H]5CCCN5C(=O)[C@@H](NC(=O)OC)C(C)C)[nH]4)sc2-3)[nH]1)C(C)C | 0.022 | 10.6 |  |  |  | 
26 | COC(=O)N[C@H](C(=O)N1CCC[C@H]1c1nc(Cl)c(-c2ccc3c(c2)OCCCOc2cc(-c4[nH]c([C@@H]5CCCN5C(=O)[C@@H](NC(=O)OC)C(C)C)nc4Cl)ccc2-3)[nH]1)C(C)C | 0.019 | 0.031 |  |  |  | 
27 | COC(=O)N[C@H](C(=O)N1CCC[C@H]1c1ncc(-c2ccc3c(c2)CCCc2cc(-c4cnc([C@@H]5CCCN5C(=O)[C@@H](NC(=O)OC)C(C)C)[nH]4)sc2-3)[nH]1)C(C)C | 0.021 | 0.801 |  |  |  | 
